Where no end group is shown, it is not given here.
What was measured:
[1] = tested on: mononuclear cells isolated from peripheral blood; assay: IL-6 and IL-10 expression (ELISA) in peripheral blood mononuclear cells treated with SP; type: cell-based, C57b1/6 mice; settings: peripheral blood mononuclear cells in T-cell activation media (ConA); 10 nmole/kg SP; 4.5, 10, 24 hours; FIG. 1
Experimental: (§1) Peripheral blood was collected from C57b1/6 mice (8 weeks, sex; male, n=5, Average Weight; 20 g), diluted doubly with PBS, carefully placed on Ficoll in a tube, and then centrifuged at 2200 rpm for 20 minutes. By centrifuging, from the bottom, an erythrocyte layer, a ficoll layer, a mononuclear cell layer, and a plasma layer were obtained in order. The mononuclear cell layer and plasma layer were isolated, excluding the erythrocyte layer and ficoll layer, and then washed one time with PBS. Then, the number of cells was counted; the cells with a concentration of 1×10^5/0.2 ml were seeded onto T-cell activation media (lymphocyte activation media; RPMI, 10% FBS, 100 μM 2-mercaptoetanol, 20 μg/ml ConA); then the cells were cultured at an incubator of 37° C.; and then culture supernatant was taken at 4.5 hours, 10 hours, and 24 hours. For SP-treated group, 10 nmole/kg of SP dissolved in a physiological saline was treated to T-cell activation media. […] After 30 minutes, 100 μl of stop codon was treated to stop the reaction; the optical density was measured at 450 nm; the amounts of cytokines were converted based on a protein conversion formula by a standard sample; and then the results were shown in FIG. 1.

[2] = tested on: CD4+ T cell isolated from peripheral blood; assay: IL-6 and IL-10 expression (ELISA) in CD4+ T cells treated with SP; type: cell-based, C57b1/6 mice; settings: CD4+ T cell in T-cell activation media; SP as Example 1-(1); 4.5, 10, 24 hours; FIG. 2
Experimental: [The procedure below names another cell line; the source says it served here with some conditions changed.] as §1, with “1. […]” for “1.”

[3] = tested on: mononuclear cells in blood; assay: Corneal epithelial burn model: number of mononuclear cells in blood; type: in vivo, New Zealand white rabbit; settings: rabbit, alkali burn of cornea; 5 nmole/kg SP i.v. immediately and 24 hours after burning; vs continuously increased without SP; FIG. 4
Experimental: Ketalar (50 mg/ml, Yuhan Corporation) and Rompun (23.32 mg (Xylazine hydrochloride)/ml, Bayer Korea Corporation) were mixed in a rate of 2:1, and then total 900 μl (Ketalar 600 μl: Rompun 300 μl) was injected into muscles of rabbits (New Zealand white rabbit, Male, 2.5 kg, n=4). After the intramuscular injection, 300 μl (Ketalar 200 μl: Rompun 100 μl) of the same anesthetic drug was injected in the rabbit's ear vein.
A 6 mm paper disc fully wetted by 1N NaOH was contacted to a limbus part of rabbit's cornea for 10 seconds. After alkali burning, corneal epithelium was removed in a size of the paper disc. The rabbit's eyes were quickly washed with a physiological saline immediately after alkali burning. At the same time, 5 nmole/kg of SP dissolved in a physiological saline was intravenously injected, and then after 24 hours, was injected once more (immediately after burning and at 24 hours after burning). For the control, PBS with the same volume was injected (injection Volume: 1 ml).
Peripheral blood was collected from ear veins in 10 ml at one, three, five and seven days after alkali burning. […]
The blood obtained from the above step was diluted twice with PBS, and then carefully put on Ficoll in a tube. […] Then, after adding 30 ml of PBS and centrifuging (washing step), the number of cells was counted to confirm the number of cells per 1 ml and then the results were shown in FIG. 4.

pancreas beta cells = assay: Streptozotocin-induced Type I diabetes: insulin IHC staining of pancreas; type: in vivo, ICR mouse

Substance-P (RPKPQQFFGLM; not fully specified; ends and bridges not checked; UniProt P20366 58-68, looked up)
expression level of IL-6 in culture supernatant [1]: no a significant difference | expression level of IL-10 in culture supernatant [1]: increased | expression level of IL-6 in culture supernatant [2]: no difference | expression of IL-10 in culture supernatant [2]: increased | total number of mononuclear cells per 1 ml blood [3]: decreased at seven days | diabetes lesion (pancreas beta cells; STZ-induced diabetes, SP treated after inducing diabetes): becomes weak | progress of Type I diabetes (pancreas beta cells; STZ-induced diabetes, SP treated when diabetes was induced): inhibits | death of beta cells secreting insulin (pancreas beta cells; STZ-induced diabetes, mice sacrificed at 11 weeks, FIG. 12): inhibited | insulin secretion (Insulin IHC staining of pancreas) (pancreas beta cells; group with injecting SP, mice sacrificed at 11 weeks, vs significantly low with only STZ, FIG. 12): high
